Test results reported in patent US20080311589A1, “METHOD OF HIGH-THROUGHPUT SCREENING OF MOLECULES AND COMPOUNDS FOR THEIR EFFECTS ON BIOLOGICAL AND CHEMICAL PROCESSES” (priority 1999, published 2008).

Test system: Mv1Lu mink lung epithelial cells
Test: 384 well anti-BrdU cytoblot
Assay type: cell-based
Details: 384-well plate; TGF-β 16 hours, then 10 μM BrdU 16 hours
Description: FIG. 1. An immunodetection assay for DNA synthesis in high density arrays of mammalian cells. (a) Cartoon depiction of an anti-BrdU cytoblot. The thymine analog 5-bromodeoxyuridine (BrdU) is incorporated into the DNA of cells that are actively replicating their DNA. The cells are in the well, and BrdU is detected with a two step antibody binding procedure. The second antibody is conjugated to the enzyme horseradish peroxidase. In the presence of the chemiluminescent substrate luminol as well as hydrogen peroxide, light of wavelength 428 nm is generated. The light emission can be detected by exposing the plate to film. (b) A cytoblot can detect TGF-β's ability to prevent BrdU incorporation in mink lung epithelial cells. 2000 Mv1Lu mink lung epithelial cells were seeded in each well of a white, opaque 384 well plate. The cells were seeded in the indicated concentrations of TGF-β in 50 μL of DMEM with 1% fetal bovine serum (FBS), 100 units/mL penicillin G sodium, 100 μg/mL streptomycin sulfate and 100 μM each of the amino acids alanine, aspartic acid, glutamine, glycine, asparagine and proline (referred to throughout as 1% mink medium) and allowed to incubate at 37° C. with 5% CO2. After 16 hours, 5.5 μL of 100 μM BrdU in 1% mink medium was added to each well, for a final concentration of 10 μM BrdU. The cells were incubated at 37° C. with 5% CO2 for an additional 16 hours and then an anti-BrdU cytoblot protocol was performed (see protocol). Wells shown are magnified 4×.
FIG. 2. A cytoblot can detect the ability of numerous antiproliferative agents to inhibit BrdU incorporation. 2000 Mv1Lu mink lung epithelial cells were seeded in each well of a white, opaque 384 well plate. The cells were seeded in 40 μL of 1% mink media and immediately 40 μL of 2× stocks of the reagents shown was added to each well and the cells were allowed to incubate at 37° C. with 5% CO2. After 24 hours, 9 μL of 100 μM BrdU in 1% mink medium was added to each well, for a final concentration of 10 μM BrdU. The cells were incubated at 37° C. with 5% CO2 for an additional 16 hours and then an anti-BrdU cytoblot protocol was performed (see protocol). Wells shown are magnified 2.5×.
The ability of the cytoblot assay to detect changes in DNA synthesis was tested by measuring the incorporation of 5-bromodeoxyuridine (BrdU, Sigma Corporation, St. Louis, Mo., Cat.# B9285) into DNA in the presence or absence of the anti-mitogen transforming growth factor β (TGF-β). Mink lung cells, which are responsive to TGF-β, were seeded into each well of an opaque, white 384-well plate. The cells were subsequently treated with varying concentrations of TGF-β for 16 hours and then with 10 μM BrdU for 16 hours. […] The following protocols provide experimental detail. […]

Question: With “TGF-β: anti-mitogen transforming growth factor β, multifunctional polypeptide signaling factor” as the substance, how does the BrdU incorporation read?
Answer: effectively prevented BrdU incorporation
